Experimental data as given in PubChem BioAssay AID489021 (Sanford-Burnham Center for Chemical Genomics, 2010).
Active and inactive are the calls of the source. The rule behind the calls is not given here.

Tested on: HEK-293T cytotoxicity, luminescence
Assay: cytotoxicity in HEK-293T cells, dose response, cytotoxicity control for BCR NF-kB inhibitor project, luminescence, B-cell screen hits (AID 489021)

COc1ccc(/C=C\C(=O)O[C@@H]2C(O)C(O[C@@H]3OC(C)[C@H](O[C@@H]4OCC(O[C@H]5O[C@H](CO)[C@@H](O)C(O)C5O)C(O)C4O)C(O)C3O)[C@H](OC(=O)[C@]34CCC(C)(C)C[C@@H]3C3=CCC5[C@@]6(C)CC(O)C(O[C@@H]7OC(CO)C(O)[C@H](O)[C@H]7O)[C@@](C)(C(=O)O)C6CC[C@@]5(C)[C@]3(CO)CC4)O[C@H]2C)cc1 (stereo partly specified)
IC50: 60.7 µM (inactive)
